Measured values from publication PMC5618341, “Controlled inhibition of methyltransferases using photoswitchable peptidomimetics: towards an epigenetic regulation of leukemia” (Chemical Science, 2017).
Where two headings read alike, the source gives them in different places. Starred links: 1 amine or outer side, 2 acyl side, 3 side chain; linkers in the order of their positions; H or OH if unused. Non-standard residues stand in square brackets, D forms with d. Residues, ends and D or L forms follow the SMILES beside them. AMPB = O=C(c1ccc(N=Nc2ccc(CN[*:1])cc2)cc1)[*:2]; Ahx = NCCCCCC(=O)O; βAla = NCCC(=O)O

Assays:
WDR5Δ23 [1] = target: T1, WDR5Δ23 (Homo sapiens, UniProt P61964); test: Fluorescence polarization (FP)-based competitive binding assay
T1 construct: His6-SUMO (N, cleaved yes); made in house; host or cells: E. coli DH5α (so in the source)

[2] = target: MLL1 core complex (MLL1, WDR5, RbBP5, and ASH2L) (Homo sapiens, UniProt P61964); details: cis vs trans
Protocol: To test this, we studied the inhibition of MLL1 H3K4 methyltransferase activity through the previously reported in vitro HMT assay using the MLL1 core complex (i.e. MLL1, WDR5, RbBP5, and ASH2L) and the H3 20mer peptide as substrate.[17]
In Vitro Histone Methyltransferase (HMT) Assay
The HMT assay was performed, as previously described[25] with slight modifications, in 50 mM Tris pH 8.0, 50 mM NaCl, 1.0 mM DTT, 5 mM MgCl2 at room temperature. Each reaction contained 1.5 μM of the cofactor 3H-S-adenosylmethionine (Perkin-Elmer). H31-21 peptide was used as the substrate at 250 μM. […] Reactions were initiated by addition of the H3/SAM and allowed to proceed for 60 min before preparing scintillation counting. To count samples, reactions were spotted on separate squares of P81 filter paper (Millipore) and precipitated by submerging in freshly prepared 50 mM sodium bicarbonate buffer pH = 9.0. After washing and drying, the samples were vortexed in Ultima Gold scintillation fluid and counted.

[3] = Proliferation / cell viability assay (CellTiter-Glo); assay type: cell-based, mouse; details: trans isomer, 2.5 μM concentration, 96 h; read-out: viable cells
Protocol: We initially studied the cellular uptake and cell viability of our compounds in murine MLL-AF9-transduced mouse bone marrow cells (Fig. 5). In line with our expectations, peptidomimetics 16 and 17 that contained peptide 7 within their sequence are the ones that inhibited the cell proliferation of leukemia. […] Thus, while in the case of the trans isomer of peptidomimetic 16 we already determined less than 50% of viable cells at 2.5 μM concentration, with the WIN-containing conjugates 20 and 21 we measured 87% and 96% of viable cells at 50 μM concentration, respectively.
(§1) We then examined the potential of 16 and 17 to control externally the cellular response in proliferation assays. Thus, both isomers of both peptidomimetics were incubated at different concentrations for four days. After two days of incubation, the cells containing the cis isomers were irradiated at 430 nm for 90 seconds in a single isomerization cycle with a custom-made 6-well plate LED array.
MLL-AF9-transduced mouse bone marrow was cultured in IMDM medium + 15% FBS and supplemented with 10 ng/mL interleukin-3 (IL-3) at each passage, every other day.
DMSO) isomers, of peptides 7, 16, 17, as well as the peptides 18 and 19 were diluted from stock to culture media containing a 0.1% DMSO final concentration. For viability assays, […]
72 h and DMSO as control . For the cis-trans group, after 48 h treatment with cis peptides, the plate was irradiated at […] for 90 sec and continued to culture for 2 days in the dark.
Viability was determined using the CellTiter-Glo Kit (Promega) according to the a a ’ d . was monitored on a Molecular Devices plate reader.

[4] = Stability against GSH reduction; assay type: physicochemical; details: 10 mM GSH, four days, kept in the dark
Protocol: as §1
H-bond cut off < 3.5 Å, Van der Waals: […]. N 3.81
Evaluation of Stability against GSH-reduction of Peptides
To test the stability of the AMPB-containing peptides 16 and 17 against reduction by glutathione (GSH), the peptides were incubated with GSH for 4 days.
Figure S72. Left: HPLC chromatograms of peptides, incubated with 10 mM GSH, recorded after different time periods. Left: peptide 16. Right: peptide 17. […]
peptides 16 and 17 (10 μM) in 0.1 M phosphate buffer pH = 7 were mixed giving final concentrations of 10 mM of GSH and 9.6 μM of the peptides, respectively. After different time periods, HPLC chromatograms of these mixtures were recorded (gradient: 5-40% B) (Figure […]
In Vitro Methyl Transferase Assay with MLL1 Core Complex
Full length constructs of both, RbBP5 (residues 1−538) and Ash2L (residues 1−635), were used for expression. […] MLL1, WDR5, RbBP5, and ASH2L were expressed as His-SUMO fusions from the pET28A-SUMO vector in BL21 DE3 pLyss codon (+) cells at 16 °C overnight. […]

[5] = tested on: Deptor gene (MLL1 target gene); test: Real-time PCR of Deptor mRNA expression; assay type: cell-based, mouse; details: 10 μM, 96 h, RT-PCR, standardized to GAPDH, vs Mock
Description: Finally, we tested whether our probe acts as an optoepi-genetic inhibitor and controls expression of MLL1 target genes. We used the Deptor gene as a reporter, given its importance in hematopoiesis and leukemogenesis,[51],[52] as well as significant regulation by MLL1 inhibition.[53] To this end, we examined Deptor expression by real-time PCR (RT-PCR). […] Of note, a small but significant (p = 0.008) difference between cis and trans isomers was observed. […] There is no statistically significant difference between cis isomer of 17 and the control.
Fig. 8 Relative Deptor mRNA expression levels in murine MLL-AF9-transduced mouse bone marrow cells after 96 h of incubation at 10 μM; they were analysed by RT-PCR and standardized to the endogenous GAPDH control. The significance is corroborated by the p-value.
Real Time Quantitative PCR Analysis of Deptor Gene
Murine MLL1-AF9 transformed bone marrow cells were obtained by transducing normal murine bone marrow cells with MLL1-AF9 oncogene according to the procedures described […]
100 mM stock) isomers, of peptides 7, 16, 17, as well as the peptides 18 and 19 were […]
The transformed cells were treated with different concentrations of the respective peptide (1.0, 5.0, 10 μM) and Mock (0.1% DMSO), giving a final concentration of 0.1% DMSO in all the samples. […] Relative quantification of each gene transcript was carried out as described previously.[28] […]

WDR5Δ23 [6] = target: T1, WDR5Δ23; parameters: method as in PMID 20575550; details: interaction with WDR5; cited from earlier work
[7] = non-irradiated peptide (trans isomer), 72 nM WDR5Δ23, 20 nM tracer 22, read-out: IC50, non-irradiated (trans)
[8] = non-irradiated peptide (trans isomer), 72 nM WDR5Δ23, 20 nM tracer 22, read-out: Ki, non-irradiation (trans)

| Compound | IC50 (WDR5Δ23 [1]; [7]) [nM] | Ki (WDR5Δ23 [1]; [8]) [nM] | stability of cis isomer against glutathione [4] | Deptor mRNA expression (in words) [5] | also measured |
| --- | --- | --- | --- | --- | --- |
| CC(C)C[C@H](NC(=O)[C@H](Cc1c[nH]cn1)NC(=O)[C@@H](NC(=O)c1ccc(N=Nc2ccc(CNC(=O)[C@H](C)NC(=O)[C@H](CCCNC(=N)N)NC(=O)[C@H](C)NC(=O)[C@@H](N)CO)cc2)cc1)C(C)C)C(=O)N[C@@H](CCCNC(=N)N)C(=O)N[C@@H](CCCCN)C(=O)N[C@@H](CO)C(N)=O [peptide 7, H2N-SARAXVHLRKS-CONH2] (H-SARA[AMPB]VHLRKS-NH2) | 146 ± 21 | 1.25 ± 0.36 |  |  | IC50 (WDR5Δ23 [1]; IC50 cis (with 5 nM tracer), cis isomer (366 nm), 20 nM WDR5Δ23, 5 nM tracer 22): 147 ± 14 nM; IC50 (WDR5Δ23 [1]; IC50 trans (with 5 nM tracer), trans isomer, 20 nM WDR5Δ23, 5 nM tracer 22): 57 ± 11 nM; Ki (WDR5Δ23 [1]; Ki cis (with 5 nM tracer), cis isomer (366 nm), 20 nM WDR5Δ23, 5 nM tracer 22): 6.37 ± 1 nM; Ki (WDR5Δ23 [1]; Ki trans (with 5 nM tracer), trans isomer, 20 nM WDR5Δ23, 5 nM tracer 22): 2.03 ± 0.42 nM; difference in IC50 between both isomers [2]: more than 15 fold |
| CC(C)C[C@H](NC(=O)[C@H](Cc1c[nH]cn1)NC(=O)[C@@H](NC(=O)c1ccc(N=Nc2ccc(CNC(=O)[C@H](C)NC(=O)[C@H](CCCNC(=N)N)NC(=O)[C@H](C)NC(=O)[C@@H](N)CO)cc2)cc1)C(C)C)C(=O)N[C@@H](CCCNC(=N)N)C(=O)N[C@@H](CCCCN)C(=O)N[C@@H](CO)C(=O)N[C@@H](CCCNC(=N)N)C(=O)N[C@@H](CCCNC(=N)N)C(=O)N[C@@H](CCCNC(=N)N)C(=O)N[C@@H](CCCNC(=N)N)C(=O)N[C@@H](CCCNC(=N)N)C(=O)N[C@@H](CCCNC(=N)N)C(=O)N[C@@H](CCCNC(=N)N)C(=O)N[C@@H](CCCNC(=N)N)C(N)=O [peptide 16, H2N-SARA-AMPB-VHLRKS-R8-NH2] (H-SARA[AMPB]VHLRKSRRRRRRRR-NH2) | 135 ± 5 | 1.18 ± 0.095 | suitable cis/trans ratio |  | viability at 2.5 µM [3]: < 50% |
| CC(C)C[C@H](NC(=O)[C@H](Cc1c[nH]cn1)NC(=O)[C@@H](NC(=O)c1ccc(N=Nc2ccc(CNC(=O)[C@H](C)NC(=O)[C@H](CCCNC(=N)N)NC(=O)[C@H](C)NC(=O)[C@@H](N)CO)cc2)cc1)C(C)C)C(=O)N[C@@H](CCCNC(=N)N)C(=O)N[C@@H](CCCCN)C(=O)N[C@@H](CO)C(=O)N[C@@H](CCCNC(=N)N)C(=O)NCCCCCC(=O)N[C@@H](CCCNC(=N)N)C(=O)N[C@@H](CCCNC(=N)N)C(=O)NCCCCCC(=O)N[C@@H](CCCNC(=N)N)C(=O)N[C@@H](CCCNC(=N)N)C(=O)NCCCCCC(=O)N[C@@H](CCCNC(=N)N)C(=O)N[C@@H](CCCNC(=N)N)C(=O)NCCCCCC(=O)N[C@@H](CCCNC(=N)N)C(=O)NCCCCCC(=O)NCCC(N)=O [peptide 17, H2N-SARA-AMPB-VHLRKS-(RahxR)4RAhxB-NH2] (H-SARA[AMPB]VHLRKSR[Ahx]RR[Ahx]RR[Ahx]RR[Ahx]R[Ahx][βAla]-NH2) | 120 ± 25 | 0.925 ± 0.39 | suitable cis/trans ratio |  |  |
| N=C(N)NCCC[C@H](NC(=O)[C@H](CCCNC(=N)N)NC(=O)[C@H](CCCNC(=N)N)NC(=O)[C@H](CCCNC(=N)N)NC(=O)[C@H](CCCNC(=N)N)NC(=O)[C@H](CCCNC(=N)N)NC(=O)[C@H](CCCNC(=N)N)NC(=O)[C@@H](N)CCCNC(=N)N)C(N)=O [peptide 18] |  |  |  | not affected |  |
| N=C(N)NCCC[C@H](NC(=O)CCCCCNC(=O)[C@H](CCCNC(=N)N)NC(=O)[C@H](CCCNC(=N)N)NC(=O)CCCCCNC(=O)[C@H](CCCNC(=N)N)NC(=O)[C@H](CCCNC(=N)N)NC(=O)CCCCCNC(=O)[C@H](CCCNC(=N)N)NC(=O)[C@H](CCCNC(=N)N)NC(=O)CCCCCNC(=O)[C@@H](N)CCCNC(=N)N)C(=O)NCCCCCC(=O)NCCC(N)=O [peptide 19] (H-R[Ahx]RR[Ahx]RR[Ahx]RR[Ahx]R[Ahx][βAla]-NH2) |  |  |  | not affected |  |
| Ac-ARAEVHLRKS-NH2 [peptide 2] |  |  |  |  | Ki (WDR5Δ23 [6]): 3 nM |
